Tests used:
UGT2B7 = target: T1, UGT2B7 (Homo sapiens, UniProt P16662); test: Enzyme inhibition assay, UGT2B7; format: in vitro ADME; design: from tissue; conditions: HLM; UGT2B7 zidovudine glucuronidation
T1 sequence (P16662 24-529): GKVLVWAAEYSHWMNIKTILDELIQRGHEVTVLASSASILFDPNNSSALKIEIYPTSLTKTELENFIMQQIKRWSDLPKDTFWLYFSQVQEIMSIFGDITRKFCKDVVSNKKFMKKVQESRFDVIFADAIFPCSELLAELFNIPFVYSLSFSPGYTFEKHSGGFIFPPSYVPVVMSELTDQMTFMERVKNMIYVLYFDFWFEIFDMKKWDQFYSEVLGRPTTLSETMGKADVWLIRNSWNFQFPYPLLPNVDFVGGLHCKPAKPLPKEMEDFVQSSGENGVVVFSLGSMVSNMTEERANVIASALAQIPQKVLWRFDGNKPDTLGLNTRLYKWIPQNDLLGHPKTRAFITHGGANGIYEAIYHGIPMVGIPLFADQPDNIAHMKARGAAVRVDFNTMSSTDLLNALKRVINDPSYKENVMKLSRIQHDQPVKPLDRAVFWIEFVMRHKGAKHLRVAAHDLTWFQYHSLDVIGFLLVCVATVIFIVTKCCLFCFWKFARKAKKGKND

HLM (Phase 2) = test: Reaction phenotyping, HLM with UDPGA; conditions: HLM (Phase 2)

`Cc1cc(C)c(Nc2ccnc(Nc3ccc(C#N)cc3)n2)c(C)c1` [DPV, Dapivirine] was tested, and the IC50 (UGT2B7) was 17.2 µM, the “% DPV Remaining at 60 min without MIC” value (HLM (Phase 2); 10 μM DPV) was 97.15% and the “% DPV Remaining at 60 min with MIC” value (HLM (Phase 2); 10 μM DPV and 30 μM MIC) was 95.59%.

Source: article PMC8706783 (Pharmaceutics, 2021)
